Test results: ChEMBL document CHEMBL1139487, “Discovery of corticotropin releasing factor 2 receptor selective sauvagine analogues for treatment of skeletal muscle atrophy” (J Med Chem, 2005)
Square brackets hold non-standard residues; d marks the D form. Peptide text beside a SMILES is read from it. 1Nal = N[C@@H](Cc1cccc2ccccc12)C(=O)O; pGlu = O=C1CC[C@@H](C(=O)O)N1

Columns and labels:
[1] = target: T1, Corticotropin-releasing factor receptor 1 (Mus musculus) (UniProt P35347); assay: In vitro agonistic activity against mouse corticotropin releasing factor 1 receptor; type: functional
T1 sequence (whole entry): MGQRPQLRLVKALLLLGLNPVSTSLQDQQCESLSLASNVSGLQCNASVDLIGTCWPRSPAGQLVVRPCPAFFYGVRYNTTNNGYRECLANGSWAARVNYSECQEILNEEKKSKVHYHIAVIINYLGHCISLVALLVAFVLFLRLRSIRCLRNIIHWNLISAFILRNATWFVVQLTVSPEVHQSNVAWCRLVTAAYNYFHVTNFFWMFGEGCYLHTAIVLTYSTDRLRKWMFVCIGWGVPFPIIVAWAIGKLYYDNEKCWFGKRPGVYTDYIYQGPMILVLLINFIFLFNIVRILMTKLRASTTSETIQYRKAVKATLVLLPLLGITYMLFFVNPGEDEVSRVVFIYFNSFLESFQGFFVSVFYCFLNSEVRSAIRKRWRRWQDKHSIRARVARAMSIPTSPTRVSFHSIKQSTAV

[2] = target: Corticotropin-releasing factor receptor 2 (Mus musculus) (UniProt Q60748); assay: In vitro agonistic activity against mouse corticotropin releasing factor 2 receptor; type: functional
Mus musculus = organism: Mus musculus; assay: Selectivity ratio of EC50s for mouse corticotropin releasing factor receptors 1 and 2

Corticotropin-releasing factor receptor 2 (Mus musculus), sequence (Q60748 whole entry): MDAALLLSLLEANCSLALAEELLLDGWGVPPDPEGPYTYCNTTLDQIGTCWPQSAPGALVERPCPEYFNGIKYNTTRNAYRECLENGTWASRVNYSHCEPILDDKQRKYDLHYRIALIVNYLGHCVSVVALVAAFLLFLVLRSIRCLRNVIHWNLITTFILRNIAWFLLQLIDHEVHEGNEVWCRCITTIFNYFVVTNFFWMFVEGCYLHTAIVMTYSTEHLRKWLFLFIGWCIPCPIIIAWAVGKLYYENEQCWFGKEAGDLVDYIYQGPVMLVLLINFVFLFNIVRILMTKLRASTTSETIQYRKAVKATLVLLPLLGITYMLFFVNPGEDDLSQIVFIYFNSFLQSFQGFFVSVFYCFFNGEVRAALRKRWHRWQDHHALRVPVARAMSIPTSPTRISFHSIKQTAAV

SMILES	Emax [1] [%]	Emax [2] [%]	Selectivity (Mus musculus)
CC[C@H](C)[C@H](NC(=O)[C@@H](NC(=O)[C@H](CC(=O)O)NC(=O)[C@H](CC(C)C)NC(=O)[C@H](CC(C)C)NC(=O)[C@H](CC(C)C)NC(=O)[C@H](CCCN=C(N)N)NC(=O)[C@H](CC(N)=O)NC(=O)[C@H](CC(N)=O)NC(=O)[C@H](C)NC(=O)[C@H](C)NC(=O)[C@H](CCC(N)=O)NC(=O)[C@H](CCC(N)=O)NC(=O)[C@H](CCCCN)NC(=O)[C@H](CCC(=O)O)NC(=O)[C@H](CCCCN)NC(=O)[C@H](CCC(=O)O)NC(=O)[C@H](CCC(N)=O)NC(=O)[C@H](CCCCN)NC(=O)[C@H](CCC(=O)O)NC(=O)[C@@H](NC(=O)[C@H](CCC(=O)O)NC(=O)[C@@H](NC(=O)[C@H](CCSC)NC(=O)[C@H](CCCCN)NC(=O)[C@H](CCCN=C(N)N)NC(=O)[C@H](CC(C)C)NC(=O)[C@H](CC(C)C)NC(=O)[C@H](CCC(N)=O)NC(=O)[C@H](CC(C)C)NC(=O)[C@@H]1CCCN1C(=O)[C@H](CC(C)C)NC(=O)[C@H](CC(=O)O)NC(=O)[C@@H](NC(=O)[C@H](CO)NC(=O)[C@@H](NC(=O)[C@@H]1CCCN1C(=O)[C@@H]1CCCN1C(=O)CNC(=O)[C@@H]1CCC(=O)N1)[C@@H](C)CC)[C@@H](C)CC)[C@@H](C)CC)[C@@H](C)CC)[C@@H](C)O)C(=O)O	100	88	65
CC[C@H](C)[C@H](NC(=O)[C@@H](NC(=O)[C@H](CC(=O)O)NC(=O)[C@H](CC(C)C)NC(=O)[C@H](CC(C)C)NC(=O)[C@H](CC(C)C)NC(=O)[C@H](CCCN=C(N)N)NC(=O)[C@H](CC(N)=O)NC(=O)[C@H](CC(N)=O)NC(=O)[C@H](C)NC(=O)[C@H](C)NC(=O)[C@H](CCC(N)=O)NC(=O)[C@H](CCC(N)=O)NC(=O)[C@H](CCCCN)NC(=O)[C@H](CCC(=O)O)NC(=O)[C@H](CCCCN)NC(=O)[C@H](CCC(=O)O)NC(=O)[C@H](CCC(N)=O)NC(=O)[C@H](CCCCN)NC(=O)[C@H](CCC(=O)O)NC(=O)[C@@H](NC(=O)[C@H](CCC(=O)O)NC(=O)[C@@H](NC(=O)[C@H](CCSC)NC(=O)[C@H](CCCCN)NC(=O)[C@H](CCCN=C(N)N)NC(=O)[C@H](CC(C)C)NC(=O)[C@H](CC(C)C)NC(=O)[C@H](CC(C)C)NC(=O)[C@@H](NC(=O)[C@@H]1CCCN1C(=O)[C@H](CC(C)C)NC(=O)[C@H](CC(=O)O)NC(=O)[C@@H](NC(=O)[C@H](CO)NC(=O)[C@@H](NC(=O)[C@@H]1CCCN1C(=O)[C@@H]1CCCN1C(=O)CNC(=O)[C@@H]1CCC(=O)N1)[C@@H](C)CC)[C@@H](C)CC)[C@@H](C)O)[C@@H](C)CC)[C@@H](C)CC)[C@@H](C)O)C(=O)O	48	100	> 49
CC[C@H](C)[C@H](NC(=O)[C@@H](NC(=O)[C@H](CC(=O)O)NC(=O)[C@H](CC(C)C)NC(=O)[C@H](CC(C)C)NC(=O)[C@H](CC(C)C)NC(=O)[C@H](CCCN=C(N)N)NC(=O)[C@H](CC(N)=O)NC(=O)[C@H](CC(N)=O)NC(=O)[C@H](C)NC(=O)[C@H](C)NC(=O)[C@H](CCC(N)=O)NC(=O)[C@H](CCC(N)=O)NC(=O)[C@H](CCCCN)NC(=O)[C@H](CCC(=O)O)NC(=O)[C@H](CCCCN)NC(=O)[C@H](CCC(=O)O)NC(=O)[C@H](CCC(N)=O)NC(=O)[C@H](CCCCN)NC(=O)[C@H](CCC(=O)O)NC(=O)[C@@H](NC(=O)[C@H](CCC(=O)O)NC(=O)[C@@H](NC(=O)[C@H](CCSC)NC(=O)[C@H](CCCCN)NC(=O)[C@H](CCCN=C(N)N)NC(=O)[C@H](CC(C)C)NC(=O)[C@H](CC(C)C)NC(=O)CNC(=O)[C@H](CC(C)C)NC(=O)[C@@H]1CCCN1C(=O)[C@H](CC(C)C)NC(=O)[C@H](CC(=O)O)NC(=O)[C@@H](NC(=O)[C@H](CO)NC(=O)[C@@H](NC(=O)[C@@H]1CCCN1C(=O)[C@@H]1CCCN1C(=O)CNC(=O)[C@@H]1CCC(=O)N1)[C@@H](C)CC)[C@@H](C)CC)[C@@H](C)CC)[C@@H](C)CC)[C@@H](C)O)C(=O)O ([pGlu]GPPISIDLPLGLLRKMIEIEKQEKEKQQAANNRLLLDTI-OH)	99	82	14
CC[C@H](C)[C@H](NC(=O)[C@@H](NC(=O)[C@H](CC(=O)O)NC(=O)[C@H](CC(C)C)NC(=O)[C@H](CC(C)C)NC(=O)[C@H](CC(C)C)NC(=O)[C@H](CCCN=C(N)N)NC(=O)[C@H](CC(N)=O)NC(=O)[C@H](CC(N)=O)NC(=O)[C@H](C)NC(=O)[C@H](C)NC(=O)[C@H](CCC(N)=O)NC(=O)[C@H](CCC(N)=O)NC(=O)[C@H](CCCCN)NC(=O)[C@H](CCC(=O)O)NC(=O)[C@H](CCCCN)NC(=O)[C@H](CCC(=O)O)NC(=O)[C@H](CCC(N)=O)NC(=O)[C@H](CCCCN)NC(=O)[C@H](CCC(=O)O)NC(=O)[C@@H](NC(=O)[C@H](CCC(=O)O)NC(=O)[C@@H](NC(=O)[C@H](CCSC)NC(=O)[C@H](CCCCN)NC(=O)[C@H](CCCN=C(N)N)NC(=O)[C@H](CC(C)C)NC(=O)[C@H](CC(C)C)NC(=O)[C@H](Cc1cccc2ccccc12)NC(=O)[C@H](CCC(N)=O)NC(=O)[C@@H]1CCCN1C(=O)[C@H](CC(C)C)NC(=O)[C@H](CC(=O)O)NC(=O)[C@@H](NC(=O)[C@H](CO)NC(=O)[C@@H](NC(=O)[C@@H]1CCCN1C(=O)[C@@H]1CCCN1C(=O)CNC(=O)[C@@H]1CCC(=O)N1)[C@@H](C)CC)[C@@H](C)CC)[C@@H](C)CC)[C@@H](C)CC)[C@@H](C)O)C(=O)O ([pGlu]GPPISIDLPQ[1Nal]LLRKMIEIEKQEKEKQQAANNRLLLDTI-OH)	100	100	26

Second part, the molecule after the results:

Emax [1] [%]	Emax [2] [%]	Selectivity (Mus musculus)	SMILES
99	93	15	CC[C@H](C)[C@H](NC(=O)[C@@H](NC(=O)[C@H](CC(=O)O)NC(=O)[C@H](CC(C)C)NC(=O)[C@H](CC(C)C)NC(=O)[C@H](CC(C)C)NC(=O)[C@H](CCCN=C(N)N)NC(=O)[C@H](CC(N)=O)NC(=O)[C@H](CC(N)=O)NC(=O)[C@H](C)NC(=O)[C@H](C)NC(=O)[C@H](CCC(N)=O)NC(=O)[C@H](CCC(N)=O)NC(=O)[C@H](CCCCN)NC(=O)[C@H](CCC(=O)O)NC(=O)[C@H](CCCCN)NC(=O)[C@H](CCC(=O)O)NC(=O)[C@H](CCC(N)=O)NC(=O)[C@H](CCCCN)NC(=O)[C@H](CCC(=O)O)NC(=O)[C@@H](NC(=O)[C@H](CCC(=O)O)NC(=O)[C@@H](NC(=O)[C@H](CCSC)NC(=O)[C@H](CCCCN)NC(=O)[C@H](CCCN=C(N)N)NC(=O)[C@H](CC(C)C)NC(=O)[C@H](CC(C)C)NC(=O)[C@H](Cc1ccc(O)cc1)NC(=O)[C@H](Cc1ccc(O)cc1)NC(=O)[C@@H]1CCCN1C(=O)[C@H](CC(C)C)NC(=O)[C@H](CC(=O)O)NC(=O)[C@@H](NC(=O)[C@H](CO)NC(=O)[C@@H](NC(=O)[C@@H]1CCCN1C(=O)[C@@H]1CCCN1C(=O)CNC(=O)[C@@H]1CCC(=O)N1)[C@@H](C)CC)[C@@H](C)CC)[C@@H](C)CC)[C@@H](C)CC)[C@@H](C)O)C(=O)O
96	100	22	CC[C@H](C)[C@H](NC(=O)[C@@H](NC(=O)[C@H](CC(=O)O)NC(=O)[C@H](CC(C)C)NC(=O)[C@H](CC(C)C)NC(=O)[C@H](CC(C)C)NC(=O)[C@H](CCCN=C(N)N)NC(=O)[C@H](CC(N)=O)NC(=O)[C@H](CC(N)=O)NC(=O)[C@H](C)NC(=O)[C@H](C)NC(=O)[C@H](CCC(N)=O)NC(=O)[C@H](CCC(N)=O)NC(=O)[C@H](CCCCN)NC(=O)[C@H](CCC(=O)O)NC(=O)[C@H](CCCCN)NC(=O)[C@H](CCC(=O)O)NC(=O)[C@H](CCC(N)=O)NC(=O)[C@H](CCCCN)NC(=O)[C@H](CCC(=O)O)NC(=O)[C@@H](NC(=O)[C@H](CCC(=O)O)NC(=O)[C@@H](NC(=O)[C@H](CCSC)NC(=O)[C@H](CCCCN)NC(=O)[C@H](CCCN=C(N)N)NC(=O)[C@H](CC(C)C)NC(=O)[C@H](CC(C)C)NC(=O)[C@H](CC(C)C)NC(=O)[C@H](CC(C)C)NC(=O)[C@@H]1CCCN1C(=O)[C@H](CC(C)C)NC(=O)[C@H](CC(=O)O)NC(=O)[C@@H](NC(=O)[C@H](CO)NC(=O)[C@@H](NC(=O)[C@@H]1CCCN1C(=O)[C@@H]1CCCN1C(=O)CNC(=O)[C@@H]1CCC(=O)N1)[C@@H](C)CC)[C@@H](C)CC)[C@@H](C)CC)[C@@H](C)CC)[C@@H](C)O)C(=O)O
81	91	14	CC[C@H](C)[C@H](NC(=O)[C@@H](NC(=O)[C@H](CC(=O)O)NC(=O)[C@H](CC(C)C)NC(=O)[C@H](CC(C)C)NC(=O)[C@H](CC(C)C)NC(=O)[C@H](CCCN=C(N)N)NC(=O)[C@H](CC(N)=O)NC(=O)[C@H](CC(N)=O)NC(=O)[C@H](C)NC(=O)[C@H](C)NC(=O)[C@H](CCC(N)=O)NC(=O)[C@H](CCC(N)=O)NC(=O)[C@H](CCCCN)NC(=O)[C@H](CCC(=O)O)NC(=O)[C@H](CCCCN)NC(=O)[C@H](CCC(=O)O)NC(=O)[C@H](CCC(N)=O)NC(=O)[C@H](CCCCN)NC(=O)[C@H](CCC(=O)O)NC(=O)[C@@H](NC(=O)[C@H](CCC(=O)O)NC(=O)[C@@H](NC(=O)[C@H](CCSC)NC(=O)[C@H](CCCCN)NC(=O)[C@H](CCCN=C(N)N)NC(=O)[C@H](CC(C)C)NC(=O)[C@H](CC(C)C)NC(=O)[C@@H](NC(=O)[C@H](Cc1ccccc1)NC(=O)[C@@H]1CCCN1C(=O)[C@H](CC(C)C)NC(=O)[C@H](CC(=O)O)NC(=O)[C@@H](NC(=O)[C@H](CO)NC(=O)[C@@H](NC(=O)[C@@H]1CCCN1C(=O)[C@@H]1CCCN1C(=O)CNC(=O)[C@@H]1CCC(=O)N1)[C@@H](C)CC)[C@@H](C)CC)C(C)C)[C@@H](C)CC)[C@@H](C)CC)[C@@H](C)O)C(=O)O
